Measurements from patent US7851493B2, “Phenyl-1,2,4-oxadiazolone derivatives with phenyl group, processes for their preparation and their use as pharmaceuticals” (Sanofi-Aventis, priority 2005, dated 2010).
Like-named read-outs stand apart in the source and are kept apart here.

What was measured:
[1] = biological target: T1, human PPARalpha (Homo sapiens, UniProt Q07869); assay: Cellular PPARalpha assay (human GAL4 luciferase reporter, stably transfected HEK cell line); type: cell-based
T1 construct: amino acids S167-Y468; expressed in transfected cells; plasmid pcDNA3
T1 sequence (Q07869 167-468): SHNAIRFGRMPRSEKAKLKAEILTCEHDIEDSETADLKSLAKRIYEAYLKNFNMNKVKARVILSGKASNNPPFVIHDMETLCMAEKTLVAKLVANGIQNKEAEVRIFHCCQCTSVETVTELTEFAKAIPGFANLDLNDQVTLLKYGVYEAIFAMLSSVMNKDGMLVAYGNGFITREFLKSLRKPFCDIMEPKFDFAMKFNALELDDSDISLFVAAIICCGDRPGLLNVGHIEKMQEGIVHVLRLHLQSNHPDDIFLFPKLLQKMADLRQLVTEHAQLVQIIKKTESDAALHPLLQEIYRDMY
Method: Determination of EC50 Values of PPAR Agonists in the Cellular PPARalpha Assay
(§1) The potency of substances which bind to human PPARalpha and activate it in an agonistic manner is analyzed using a stably transfected HEK cell line (HEK=human embryo kidney) which is referred to here as PPARalpha reporter cell line. It contains two genetic elements, a luciferase reporter element (pdeltaM-GAL4-Luc-Zeo) and a PPARalpha fusion protein (GR-GAL4-humanPPARalpha-LBD) which mediates expression of the luciferase reporter element depending on a PPARalpha ligand. The stably and constitutively expressed fusion protein GR-GAL4-humanPPARalpha-LBD binds in the cell nucleus of the PPARalpha reporter cell line via the GAL4 protein portion to the GAL4 DNA binding motifs 5′-upstream of the luciferase reporter element which is stably integrated in the genome of the cell line. There is only weak expression of the luciferase reporter gene in the absence of a PPARalpha ligand if fatty acid-depleted fetal calf serum (cs-FCS) is used in the assay. PPARalpha ligands bind and activate the PPARalpha fusion protein and thereby stimulate the expression of the luciferase reporter gene. The luciferase which is formed can be detected by means of chemiluminescence via an appropriate substrate.
Construction of the PPARalpha Reporter Cell Line
The PPARalpha reporter cell line was prepared in two stages. Firstly, the luciferase reporter element was constructed and stably transfected into HEK cells. For this purpose, five binding sites of the yeast transcription factor GAL4 (Accession #AF264724) were cloned in 5′-upstream of a 68 bp-long minimal MMTV promoter (Accession #V01175). The minimal MMTV promoter section contains a […] and a TATA element in order to enable efficient transcription by RNA polymerase II. The cloning and sequencing of the GAL4-MMTV construct took place in analogy to the description of Sambrook J. et al. (Molecular cloning, Cold Spring Harbor Laboratory Press, 1989). Then the complete Photinus pyralis gene (Accession #15077) was cloned in 3′-downstream of the GAL4-MMTV element. After sequencing, the luciferase reporter element consisting of five GAL4 binding sites, MMTV promoter and luciferase gene was recloned into a plasmid which confers zeocin resistance in order to obtain the plasmid pdeltaM-GAL4-Luc-Zeo. This vector was transfected into HEK cells in accordance with the statements in Ausubel, F. M. et al. (Current protocols in molecular biology, Vol. 1-3, John Wiley & Sons, Inc., 1995).
In a second step, the PPARalpha fusion protein (GR-GAL4-humanPPARalpha-LBD was introduced into the stable cell clone described. For this purpose, initially the cDNA coding for the N-terminal 76 amino acids of the glucocorticoid receptor (Accession #P04150) was linked to the cDNA section coding for amino acids 1-147 of the yeast transcription factor GAL4 (Accession #P04386). The cDNA of the ligand-binding domain of the human PPARalpha receptor (amino acids S167-Y468; Accession #S74349) was cloned in at the 3′-end of this GR-GAL4 construct. The fusion construct prepared in this way (GR-GAL4-humanPPARalpha-LBD) was recloned into the plasmid pcDNA3 (Invitrogen) in order to enable constitutive expression therein by the cytomegalovirus promoter. This plasmid was linearized with a restriction endonuclease and stably transfected into the previously described cell clone containing the luciferase reporter element. The finished PPARalpha reporter cell line which contains a luciferase reporter element and constitutively expresses the PPARalpha fusion protein (GR-GAL4-human PPARalpha-LBD) was isolated by selection with zeocin (0.5 mg/ml) and G418 (0.5 mg/ml).
The activity of PPARalpha agonists is determined in a 3-day assay, which is described below: […]

[2] = biological target: T2, human PPARdelta (Homo sapiens, UniProt Q03181); assay: Cellular PPARdelta assay (human GAL4 luciferase reporter, stably transfected HEK cell line); type: cell-based
T2 construct: amino acids S139-Y441; expressed in transfected cells; plasmid pcDNA3
T2 sequence (Q03181 139-441): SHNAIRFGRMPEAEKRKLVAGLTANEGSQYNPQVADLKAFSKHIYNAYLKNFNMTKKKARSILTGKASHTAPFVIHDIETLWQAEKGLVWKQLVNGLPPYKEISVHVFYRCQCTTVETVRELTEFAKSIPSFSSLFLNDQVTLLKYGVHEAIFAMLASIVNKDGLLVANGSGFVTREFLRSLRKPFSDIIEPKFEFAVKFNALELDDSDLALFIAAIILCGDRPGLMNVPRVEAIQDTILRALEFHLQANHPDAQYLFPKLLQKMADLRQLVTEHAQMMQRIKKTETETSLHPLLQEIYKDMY
Method: Determination of EC50 Values of PPAR Agonists in the Cellular PPARdelta Assay
as §1, with “PPARdelta” for “PPARalpha”, “In analogy to the assay described for PPARalpha, the PPARdelta reporter cell line also” for “It”, “(GR-GAL4-humanPPARdelta-LBD)” for “(GR-GAL4-humanPPARalpha-LBD)”, “GR-GAL4-humanPPARdelta-LBD” for “GR-GAL4-humanPPARalpha-LBD”, “little” for “weak”, “stimulate” for “stimulate the”
Construction of the PPARdelta Reporter Cell Line
The production of the stable PPARdelta reporter cell line is based on a stable HEK-cell clone which was stably transfected with a luciferase reporter element. This step was already described above in the section “construction of the PPARalpha reporter cell line”. In a second step, the PPARdelta fusion protein (GR-GAL4-humanPPARdelta-LBD was stably introduced into this cell clone. For this purpose, the cDNA coding for the N-terminal 76 amino acids of the glucocorticoid receptor (Accession #P04150) was linked to the cDNA section coding for amino acids 1-147 of the yeast transcription factor GAL4 (Accession #P04386). The cDNA of the ligand-binding domain of the human PPARdelta receptor (amino acids S139-Y441; Accession #L07592) was cloned in at the 3′-end of this GR-GAL4 construct. The fusion construct prepared in this way (GR-GAL4-humanPPARdelta-LBD) was recloned into the plasmid pcDNA3 (Invitrogen) in order to enable constitutive expression by the cytomegalovirus promoter. This plasmid was linearized with a restriction endonuclease and stably transfected into the previously described cell clone containing the luciferase reporter element. The resulting PPARdelta reporter cell line which contains a luciferase reporter element and constitutively expresses the PPARdelta fusion protein (GR-GAL4-human PPARdelta-LBD) was isolated by selection with zeocin (0.5 mg/ml) and G418 (0.5 mg/ml).
Assay Procedure and Evaluation
The activity of PPARdelta agonists is determined in a 3-day assay in exact analogy to the procedure already described for the PPARalpha reporter cell line except that the PPARdelta reporter cell line and a specific PPARdelta agonist was used as a standard to control test efficacy.

[3] = diabetic animal model; cited from earlier work
[4] = rhesus and cynomolgus monkeys; cited from earlier work
[5] = two weeks clinical trials in healthy volunteers; cited from earlier work

SMILES | EC50 [1] | EC50 [2] | plasma cholesterol [3] | plasma lipids [4] | plasma lipids [5]
CCCCc1nc(-c2ccc(C(F)(F)F)cc2)sc1COc1ccc(-c2noc(=O)[nH]2)c(C)n1 [Example 100, 3-{6-[4-Butyl-2-(4-trifluoromethyl-phenyl)-thiazol-5-ylmethoxy]-2-methyl-pyridin-3-yl}-4H-[1,2,4]oxadiazol-5-one] | 315 nM | 8 nM |  |  | 
COc1cc(OCc2sc(-c3ccc(C(F)(F)F)cc3)nc2CCCS(C)(=O)=O)ccc1-c1noc(=O)[nH]1 [Example 102, 3-{4-[4-(3-Methanesulfonyl-propyl)-2-(4-trifluoromethyl-phenyl)-thiazol-5-ylmethoxy]-2-methoxy-phenyl}-4H-1,2,4-oxadiazol-5-one] | 1780 nM | 22 nM |  |  | 
COc1cc(OCc2sc(-c3ccc(C(F)(F)F)cc3)nc2CCCN2CCSCC2)ccc1-c1noc(=O)[nH]1 [Example 103, 3-{2-Methoxy-4-[4-(3-thiomorpholin-4-yl-propyl)-2-(4-trifluoromethyl-phenyl)-thiazol-5-ylmethoxy]-phenyl}-4H-1,2,4-oxadiazol-5-one] | 483 nM | 8 nM |  |  | 
CCCc1c(OCCCOc2ccc(OCC(=O)O)cc2)ccc(C(C)=O)c1O [Example L-165041] |  |  | raises |  | 
CCCc1c(OCCCSc2nnc(SCC(=O)O)s2)ccc(C(C)=O)c1O [YM-16638] |  |  |  | significantly lowers | acts in a similar manner
